Measured values as given in US12317914B2, “Compositions and methods using one or more autophagy-inducing amino acids to potentiate musculoskeletal effect of one or more anabolic amino acids” (SOCIETE DES PRODUITS NESTLE S.A., priority 2019, dated 2025).

System: LC3 protein fused to ZsGreen
Test: zebrafish autophagy reporter (LC3-ZsGreen, skeletal muscle specific promoter), number of LC3 punctae
Type: in vivo
Conditions: zebrafish larvae treated at 48 h post-fertilization, 0.25 to 10 mM, 16 hours of treatment
Description: After 16 hours of treatment larvae were anesthetized with 0.016% tricaine and imaged with ImageXpress confocal system at 20× magnification (Molecular Devices). Z stack images were captured for each larva and maximal projection images were produced. Number of LC3 punctae have been calculated with MetaXpress software (Moleculare Devices) and normalized by fish area.

| SMILES | effect on autophagy (number of LC3 punctae normalized by fish area) |
| --- | --- |
| N[C@@H](CS)C(=O)O [Cysteine] | strongly induce autophagy |
| CC(C)[C@H](N)C(=O)O [Valine] | strongly induce autophagy |
| CC[C@H](C)[C@H](N)C(=O)O [Isoleucine] | reduce basal autophagy |
| CC(C)C[C@H](N)C(=O)O [Leucine] | reduce basal autophagy |
| NCC(=O)O [Glycine] | strongly induce autophagy |
| CC(=O)N[C@@H](CS)C(=O)O [N-Acetyl Cysteine] | strongly induce autophagy |
| NC(=O)CC[C@H](N)C(=O)O [Glutamine] | reduce basal autophagy |
| N[C@@H](CCC(=O)O)C(=O)O [Glutamate] | strongly induce autophagy |
| N[C@@H](CO)C(=O)O [Serine] | strongly induce autophagy |
| N=C(N)NCCC[C@H](N)C(=O)O [Arginine] | reduce basal autophagy |
| CSCC[C@H](N)C(=O)O [Methionine] | strongly induce autophagy |
| O=C(O)[C@@H]1CCCN1 [Proline] | strongly induce autophagy |
| N[C@@H](Cc1ccc(O)cc1)C(=O)O [Tyrosine] | strongly induce autophagy |
